Where two headings read alike, the source gives them in different places.

Type in all cases: cell-based
The target in one assay is T1, human TLR9 (Homo sapiens, UniProt Q9NR96).
T1 construct: host or cells: HEK-Blue cells (HEK293-derived reporter line)
T1 sequence (Q9NR96 26-1032): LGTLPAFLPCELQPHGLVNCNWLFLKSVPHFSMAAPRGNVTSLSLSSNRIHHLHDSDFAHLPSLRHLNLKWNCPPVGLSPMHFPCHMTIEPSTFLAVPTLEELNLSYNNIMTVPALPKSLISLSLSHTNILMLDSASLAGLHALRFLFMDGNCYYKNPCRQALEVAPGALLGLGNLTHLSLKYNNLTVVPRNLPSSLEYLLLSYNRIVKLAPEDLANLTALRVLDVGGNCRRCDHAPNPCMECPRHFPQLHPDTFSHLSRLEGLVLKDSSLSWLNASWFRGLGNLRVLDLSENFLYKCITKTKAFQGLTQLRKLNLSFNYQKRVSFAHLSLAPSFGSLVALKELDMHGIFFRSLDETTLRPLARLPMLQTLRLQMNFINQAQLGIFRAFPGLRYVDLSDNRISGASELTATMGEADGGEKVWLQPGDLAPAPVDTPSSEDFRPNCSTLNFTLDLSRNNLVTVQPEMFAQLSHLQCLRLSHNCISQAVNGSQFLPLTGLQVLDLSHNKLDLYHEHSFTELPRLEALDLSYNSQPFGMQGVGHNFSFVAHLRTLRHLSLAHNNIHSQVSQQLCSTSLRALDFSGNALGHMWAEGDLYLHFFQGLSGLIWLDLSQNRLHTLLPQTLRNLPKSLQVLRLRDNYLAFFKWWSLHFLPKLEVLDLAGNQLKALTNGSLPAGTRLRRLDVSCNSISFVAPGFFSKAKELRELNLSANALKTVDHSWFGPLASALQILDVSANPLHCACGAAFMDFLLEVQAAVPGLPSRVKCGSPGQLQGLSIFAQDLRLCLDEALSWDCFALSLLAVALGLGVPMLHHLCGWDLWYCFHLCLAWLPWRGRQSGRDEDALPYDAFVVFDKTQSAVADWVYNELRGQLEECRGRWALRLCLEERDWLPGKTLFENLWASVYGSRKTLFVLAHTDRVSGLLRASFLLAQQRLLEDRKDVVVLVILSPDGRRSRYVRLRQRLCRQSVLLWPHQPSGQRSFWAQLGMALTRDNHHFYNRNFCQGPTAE
Kind of assay: TLR9 inhibition reporter assay (HEK-Blue cells, secreted embryonic alkaline phosphatase reporter). The following applies: HEK-Blue cells overexpressing human TLR9, stimulated with ODN2006 5 nM. In short, it runs like this:
(§1)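 Inhibitors are tested in dose response (0.05 nM–50 μM) on HEK-Blue reporter cells expressing human TLR7, TLR8 or TLR9. After 30 min at room temperature, each line is stimulated with its own agonist (gardiquimod 7.5 μM, R848 15.9 μM or ODN2006 5 nM, final) and SEAP is measured 22 h later.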

Another assay has as its target T2, human TLR7 (Homo sapiens, UniProt Q9NYK1).
T2 construct: host or cells: HEK-Blue cells (HEK293-derived reporter line)
T2 sequence (Q9NYK1 27-1049): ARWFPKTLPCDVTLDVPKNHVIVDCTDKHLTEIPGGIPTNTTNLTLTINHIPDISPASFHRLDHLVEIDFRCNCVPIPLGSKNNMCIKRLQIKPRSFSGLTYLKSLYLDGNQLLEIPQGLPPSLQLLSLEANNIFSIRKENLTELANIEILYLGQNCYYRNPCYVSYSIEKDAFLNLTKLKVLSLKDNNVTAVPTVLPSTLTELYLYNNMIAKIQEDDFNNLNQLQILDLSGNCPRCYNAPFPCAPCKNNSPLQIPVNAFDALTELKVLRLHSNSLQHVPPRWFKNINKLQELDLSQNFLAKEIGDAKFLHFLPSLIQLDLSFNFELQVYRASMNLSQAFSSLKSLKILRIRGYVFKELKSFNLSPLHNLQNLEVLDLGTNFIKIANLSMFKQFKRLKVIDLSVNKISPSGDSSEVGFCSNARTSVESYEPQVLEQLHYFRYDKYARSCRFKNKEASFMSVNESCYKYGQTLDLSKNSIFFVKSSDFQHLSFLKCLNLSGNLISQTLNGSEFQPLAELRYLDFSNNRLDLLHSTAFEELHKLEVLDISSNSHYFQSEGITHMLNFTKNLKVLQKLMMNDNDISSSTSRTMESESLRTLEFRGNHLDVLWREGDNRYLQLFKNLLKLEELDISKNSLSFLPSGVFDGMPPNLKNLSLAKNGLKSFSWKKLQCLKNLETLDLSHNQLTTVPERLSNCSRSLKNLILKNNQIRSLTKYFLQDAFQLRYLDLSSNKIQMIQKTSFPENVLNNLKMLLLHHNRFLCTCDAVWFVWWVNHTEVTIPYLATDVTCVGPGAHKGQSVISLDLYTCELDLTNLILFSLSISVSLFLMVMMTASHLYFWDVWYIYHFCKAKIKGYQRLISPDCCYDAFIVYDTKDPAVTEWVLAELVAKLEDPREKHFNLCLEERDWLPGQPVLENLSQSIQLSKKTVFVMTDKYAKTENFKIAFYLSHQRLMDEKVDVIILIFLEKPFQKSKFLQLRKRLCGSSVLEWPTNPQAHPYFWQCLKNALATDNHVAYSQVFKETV
Kind of assay: TLR7 inhibition reporter assay (HEK-Blue cells, secreted embryonic alkaline phosphatase reporter). The conditions noted are these: HEK-Blue cells overexpressing human TLR7, stimulated with gardiquimod 7.5 μM; read-out: TLR 7 IC50. In short, it runs like this: as §1

The target in another assay is T3, human TLR8 (Homo sapiens, UniProt Q9NR97).
T3 construct: host or cells: HEK-Blue cells (HEK293-derived reporter line)
T3 sequence (Q9NR97 27-1041): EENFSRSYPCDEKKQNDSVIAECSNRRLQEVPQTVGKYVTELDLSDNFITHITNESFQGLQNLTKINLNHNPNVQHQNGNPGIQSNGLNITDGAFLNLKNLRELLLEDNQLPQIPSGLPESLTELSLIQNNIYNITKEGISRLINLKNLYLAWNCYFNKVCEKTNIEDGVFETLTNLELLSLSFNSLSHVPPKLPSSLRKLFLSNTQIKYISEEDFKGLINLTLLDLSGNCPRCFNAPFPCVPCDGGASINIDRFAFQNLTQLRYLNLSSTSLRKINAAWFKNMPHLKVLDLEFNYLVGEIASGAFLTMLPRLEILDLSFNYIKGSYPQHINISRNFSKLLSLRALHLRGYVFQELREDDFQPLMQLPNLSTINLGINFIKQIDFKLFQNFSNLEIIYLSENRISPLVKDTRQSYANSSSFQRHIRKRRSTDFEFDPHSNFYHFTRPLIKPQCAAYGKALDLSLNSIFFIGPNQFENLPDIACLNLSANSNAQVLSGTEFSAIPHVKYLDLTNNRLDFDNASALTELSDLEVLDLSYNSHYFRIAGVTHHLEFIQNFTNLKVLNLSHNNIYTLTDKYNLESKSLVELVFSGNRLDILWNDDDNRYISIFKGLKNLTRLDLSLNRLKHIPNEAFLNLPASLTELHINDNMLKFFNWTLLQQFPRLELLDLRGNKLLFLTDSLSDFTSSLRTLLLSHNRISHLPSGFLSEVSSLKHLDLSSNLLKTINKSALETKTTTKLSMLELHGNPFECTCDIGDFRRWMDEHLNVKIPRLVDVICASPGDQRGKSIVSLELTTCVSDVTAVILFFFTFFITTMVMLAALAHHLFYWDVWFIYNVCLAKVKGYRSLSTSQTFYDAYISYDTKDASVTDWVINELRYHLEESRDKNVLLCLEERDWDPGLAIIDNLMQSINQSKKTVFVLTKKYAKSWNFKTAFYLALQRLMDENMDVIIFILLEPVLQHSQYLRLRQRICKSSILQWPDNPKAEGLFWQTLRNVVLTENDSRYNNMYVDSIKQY
Kind of assay: TLR8 inhibition reporter assay (HEK-Blue cells, secreted embryonic alkaline phosphatase reporter). The following applies: HEK-Blue cells overexpressing human TLR8, stimulated with R848 15.9 μM; read-out: TLR 8 IC50. In short, it runs like this:
as §1

Setting [1] is: 22 hour incubation, reporter readout.

With `Cc1cc(-c2ccc(CN3CCN(C(C)C)CC3)cc2)cc2c1nc(-c1ccc(S(C)(=O)=O)cc1)n2C` [Example 413, 6-(4-((4-isopropylpiperazin-1-yl)methyl)phenyl)-1,4-dimethyl-2-(4-(methylsulfonyl)phenyl)-1H-benzo[d]imidazole], the IC50 at human TLR9 (setting [1]) was 1900 nM; on human TLR9 (read-out: TLR 9 IC50), 1880 nM; at human TLR7, above 50000 nM; at human TLR8, 5400 nM.
The matching figures for `Cc1ccc(CN2CCC(c3cc(C)c4nc(-c5ccc(S(C)(=O)=O)cc5)n(C)c4c3)CC2)cn1` [Example 419, 1,4-dimethyl-6-(1-((6-methylpyridin-3-yl)methyl)piperidin-4-yl)-2-(4-(methylsulfonyl)phenyl)-1H-benzo[d]imidazole]: 2100 nM, 2140 nM, 2300 nM and 8400 nM.
The matching figures for `CCOP(=O)(OCC)c1ccc(-c2nc3c(C)cc(C4CCN(C5CCN(C(C)C)CC5)CC4)cc3n2C)cc1` [Example 420, diethyl(4-(6-(1′-isopropyl-[1,4′-bipiperidin]-4-yl)-1,4-dimethyl-1H-benzo[d]imidazol-2-yl)phenyl)phosphonate]: 140 nM, 136 nM, above 50000 nM and 42200 nM.
The corresponding values for `CCOP(=O)(OCC)c1ccc(-c2nc3c(C)cc(C4CCN(C5CCN(CC(C)C)CC5)CC4)cc3n2C)cc1` [Example 421, diethyl(4-(6-(1′-isobutyl-[1,4′-bipiperidin]-4-yl)-1,4-dimethyl-1H-benzo[d]imidazol-2-yl)phenyl)phosphonate] are 140 nM, 139 nM, 700 nM and above 50000 nM.
With `CCOP(=O)(OCC)c1ccc(-c2nc3c(C)cc(C4CCN(C5CCN(C6CC6)CC5)CC4)cc3n2C)cc1` [Example 422, diethyl(4-(6-(1′-cyclopropyl-[1,4′-bipiperidin]-4-yl)-1,4-dimethyl-1H-benzo[d]imidazol-2-yl)phenyl)phosphonate], the IC50 against human TLR9 (setting [1]) was 180 nM; at human TLR9 (read-out: TLR 9 IC50) it was 180 nM; on human TLR7, 4000 nM; at human TLR8, 27300 nM.

Values taken from US12492188B2, “1H-benzo[D]imidazole derivatives as TLR9 inhibitors for the treatment of fibrosis” (BRISTOL-MYERS SQUIBB COMPANY, priority 2020, dated 2025).
